Data taken from the supplement of paper PMC4862054.

How the values were obtained:
Assay in all cases: normalised response (% of control), CellTiter-Glo; higher = more viable cells (100 = DMSO, 0 = benzethonium chloride kill control)
Settings in all cases: incubation time: 72 h
[1] = test system: BT-474
In short: (§1)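 Each value is the plate-normalised signal at one concentration of the series. Breast cancer cell lines (20 µl suspension) were incubated 72 h in 384-well plates with compound at 5 concentrations in 10-fold steps over a compound-specific 10,000-fold range. CellTox Green and then CellTiter-Glo were read, and each plate was scaled to 0.1 % DMSO (100) and a positive kill control (0).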

[2] = test system: BT-549
In short: as §1

[3] = test system: CAL-120
In short: as §1

[4] = test system: CAL-148
In short: as §1

[5] = test system: CAL-51
In short: as §1

[6] = test system: CAL-85-1
In short: as §1

[7] = test system: DU-4475
In short: as §1

[8] = test system: HCC1143
In short: as §1

[9] = test system: HCC1599
In short: as §1

[10] = test system: HCC1937
In short: as §1

[11] = test system: HDQ-P1
In short: as §1

[12] = test system: Hs578T
In short: as §1

[13] = test system: MCF-10A
In short: as §1

[14] = test system: MDA-MB-231
In short: as §1

[15] = test system: MDA-MB-436
In short: as §1

[16] = test system: MDA-MB-453
In short: as §1

[17] = test system: MDA-MB-468
In short: as §1

[18] = test system: MFM-223
In short: as §1

[19] = test system: SK-BR-3
In short: as §1

| SMILES | normalised response [1] | normalised response [2] | normalised response [3] | normalised response [4] | normalised response [5] | normalised response [6] | normalised response [7] | normalised response [8] | normalised response [9] | normalised response [10] | normalised response [11] | normalised response [12] | normalised response [13] | normalised response [14] | normalised response [15] | normalised response [16] | normalised response [17] | normalised response [18] | normalised response [19] |
| --- | --- | --- | --- | --- | --- | --- | --- | --- | --- | --- | --- | --- | --- | --- | --- | --- | --- | --- | --- |
| CNC(=O)c1ccc(N2C(=S)N(c3ccc(C#N)c(C(F)(F)F)c3)C(=O)C23CCC3)cc1F [RD162] (10 nM) | 103% | 93.8% | 95.5% | 107% | 102% | 101% | 102% | 105% | 99.3% | 97% | 96.3% | 95.3% | 105% | 98.2% | 93.7% | 104% | 105% | 102% | 94.4% |
| CNC(=O)c1ccc(N2C(=S)N(c3ccc(C#N)c(C(F)(F)F)c3)C(=O)C2(C)C)cc1F [Enzalutamide] (10 nM) | 103% | 91.4% | 95.3% | 107% | 124% | 93.5% | 101% | 103% | 95.8% | 91.3% | 100% | 101% | 106% | 94.5% | 99.4% | 99% | 98.7% | 98.6% | 98% |
| CCc1c2c(nc3ccc(OC(=O)N4CCC(N5CCCCC5)CC4)cc13)-c1cc3c(c(=O)n1C2)COC(=O)[C@]3(O)CC [Irinotecan] (10 nM) | 100% | 90.8% | 94.2% | 93.7% | 114% | 100% | 106% | 99.7% | 97.5% | 94.8% | 98.4% | 97.7% | 105% | 97.7% | 92.7% | 107% | 105% | 98.7% | 109% |
| NC(=O)c1ccc(I)c([N+](=O)[O-])c1 [Iniparib] (10 nM) | 91.2% | 94.2% | 91.9% | 83.2% | 85.4% | 90.6% | 93.5% | 90% | 94.2% | 95.4% | 89.2% | 92.8% | 81.3% | 92.6% | 87.2% | 77.9% | 90.7% | 84.2% | 74.1% |
| COc1cc(OC2CCN(C)CC2)ccc1Nc1ncc2c(n1)n(C1CCCC1)c(=O)n2C [AZ 3146] (10 nM) | 107% | 96.3% | 103% | 99.7% | 132% | 102% | 97% | 100% | 95.9% | 96.1% | 95.9% | 93% | 95.5% | 104% | 98.2% | 97.8% | 111% | 102% | 95.4% |
| COc1cc2c(NC3CCN(C(C)C)CC3)nc(N3CCC(F)(F)CC3)nc2cc1OCCCN1CCCC1 [UNC0642] (1 nM) | 92.3% | 97.9% | 94.2% | 87.2% | 103% | 93.2% | 97.5% | 95% | 88.9% | 94.5% | 92.7% | 99.3% | 102% | 96% | 89.2% | 105% | 95.9% | 91.2% | 93.1% |
| COC(=O)c1ccc2c(c1)NC(=O)/C2=C(\Nc1ccc(N(C)C(=O)CN2CCN(C)CC2)cc1)c1ccccc1 [Nintedanib] (10 nM) | 96.9% | 100% | 100% | 105% | 125% | 95% | 103% | 97% | 133% | 97.3% | 104% | 104% | 107% | 91.2% | 104% | 115% | 102% | 103% | 115% |
| COc1cc2c(NC3CCN(C(C)C)CC3)nc(N3CCC(F)(F)CC3)nc2cc1OCCCN1CCCC1 [UNC0642] (10 nM) | 97.7% | 97.7% | 95.2% | 88.6% | 86.3% | 96.6% | 94.6% | 95.3% | 96.5% | 98.2% | 97.4% | 107% | 102% | 95.3% | 101% | 92% | 89% | 88.4% | 108% |
| CNC(=O)c1ccc(N2C(=S)N(c3ccc(C#N)c(C(F)(F)F)c3)C(=O)C23CCC3)cc1F [RD162] (1 nM) | 97% | 93.8% | 98% | 104% | 108% | 96.2% | 102% | 93.7% | 107% | 93.8% | 95.9% | 102% | 102% | 106% | 101% | 104% | 106% | 99.9% | 107% |
| O=C(Nc1cccnc1)N1CCC(Cc2cccc(Oc3ccc(C(F)(F)F)cn3)c2)CC1 [PF-3845] (10 nM) | 110% | 96.7% | 105% | 112% | 88.9% | 103% | 105% | 106% | 96.9% | 103% | 97.3% | 108% | 115% | 109% | 100% | 106% | 101% | 119% | 96.7% |
| CN(C)CCOc1ccc(/C(=C(/CCCl)c2ccccc2)c2ccccc2)cc1 [Toremifene] (10 nM) | 101% | 99% | 105% | 109% | 130% | 95.1% | 108% | 98.2% | 91.3% | 98.6% | 99.2% | 103% | 105% | 96.8% | 97.1% | 120% | 103% | 106% | 117% |
| CCn1c(-c2nonc2N)nc2cnc(Oc3cccc(NC(=O)c4ccc(OCCN5CCOCC5)cc4)c3)cc21 (1 nM) | 95.1% | 108% | 41.8% | 98.6% | 114% | 101% | 94.3% | 103% | 103% | 104% | 104% | 99.5% | 102% | 102% | 104% | 101% | 95.6% | 96.8% | 102% |
| Cc1cc(Nc2cc(CN3CCOCC3)c3nc(C)c(Cc4ccc(Cl)cc4F)n3n2)n[nH]1 [Gandotinib] (1 nM) | 108% | 105% | 94.4% | 111% | 93.5% | 104% | 106% | 97.8% | 109% | 100% | 97.3% | 100% | 107% | 98.1% | 97.4% | 103% | 112% | 99.7% | 110% |
| N#Cc1ccc(COC[C@H]2O[C@@H](n3c(NCc4ccc(Cl)c(Cl)c4)nc4c(N)ncnc43)[C@H](O)[C@@H]2O)cc1 (10 nM) | 107% | 103% | 97.2% | 115% | 76.3% | 98.1% | 106% | 107% | 92.3% | 98.7% | 97.5% | 101% | 101% | 106% | 108% | 106% | 101% | 113% | 132% |
| CC(C)C[C@@H](C(=O)N[C@H](C(=O)OC1CCCC1)c1ccccc1)[C@H](O)C(=O)NO [Tosedostat] (10 nM) | 95.3% | 88.2% | 92.6% | 111% | 125% | 92.2% | 99.5% | 97.2% | 114% | 87.9% | 99.8% | 94.4% | 102% | 94.4% | 96.1% | 93.9% | 78.5% | 104% | 113% |
| S=P(N1CC1)(N1CC1)N1CC1 [Thio-TEPA] (5 nM) | 93.2% | 94.9% | 95.4% | 90.4% | 64.7% | 99.2% | 98.6% | 96.2% | 104% | 93.8% | 93.4% | 106% | 101% | 102% | 78.2% | 108% | 91.2% | 102% | 105% |
| COc1cc(O)c2c(c1)/C=C/C[C@H](O)[C@H](O)C(=O)/C=C\C[C@H](C)OC2=O [(5Z)-7-Oxozeaenol] (10 nM) | 106% | 103% | 94.9% | 106% | 107% | 96.4% | 102% | 108% | 121% | 106% | 96.9% | 104% | 112% | 109% | 99% | 93% | 100% | 107% | 107% |
| CCn1c(-c2nonc2N)nc2cnc(Oc3cccc(NC(=O)c4ccc(OCCN5CCOCC5)cc4)c3)cc21 (10 nM) | 93.3% | 97.3% | 92.4% | 94.9% | 121% | 102% | 94.2% | 101% | 104% | 104% | 103% | 104% | 89% | 99.8% | 95% | 91.3% | 94.3% | 106% | 117% |
| Oc1ccc2c(c1)CC[C@H](c1ccccc1)[C@@H]2c1ccc(OCCN2CCCC2)cc1 [Lasofoxifene] (1 nM) | 102% | 93.2% | 95.1% | 112% | 106% | 96.6% | 105% | 100% | 97.3% | 101% | 96.3% | 103% | 104% | 104% | 101% | 112% | 105% | 107% | 110% |
| CO[C@H]1C[C@@H]2CC[C@@H](C)[C@@](O)(O2)C(=O)C(=O)N2CCCC[C@H]2C(=O)O[C@H]([C@H](C)C[C@@H]2CC[C@@H](OP(C)(C)=O)[C@H](OC)C2)CC(=O)[C@H](C)/C=C(\C)[C@@H](O)[C@@H](OC)C(=O)[C@H](C)C[C@H](C)/C=C/C=C/C=C/1C [Ridaforolimus] (0.01 nM) | 107% | 101% | 103% | 105% | 109% | 99.8% | 103% | 102% | 113% | 99.6% | 109% | 96.8% | 104% | 103% | 103% | 109% | 102% | 105% | 111% |
